# Test results from patent US20080153700A1, “Fungicidal Mixtures” (Basf Aktiengesellschaft, priority 2004, published 2008).
# Test system: Plasmopara viticola
# Experiment: activity against peronospora of grapevines caused by Plasmopara viticola (protective spray on potted vines)
# Type: in vivo, Plasmopara viticola on vines of the cultivar "Riesling"
# Details: individual active compound, untreated control 88% infection
# Method: The active compounds, separately or jointly, were prepared as a stock solution comprising 0.25% by weight of active compound in acetone or DMSO. 1% by weight of the emulsifier Uniperol® EL (wetting agent having emulsifying and dispersant action based on ethoxylated alkylphenols) was added to this solution, and the mixture was diluted with water to the desired concentration.
# Use example—activity against peronospora of grapevines caused by Plasmopara viticola
# Leaves of potted vines of the cultivar “Riesling” were sprayed to runoff point with an aqueous suspension having the concentration of active compound stated below. The next day, the undersides of the leaves were inoculated with an aqueous zoospore suspension of Plasmopara viticola. The grapevines were then initially placed in a water-vapor-saturated chamber at 24° C. for 48 hours and then in a greenhouse at 20-30° C. for 5 days. After this period of time, the plants were again placed in a humid chamber for 16 hours to promote sporangiophore eruption. The extent of the development of the disease on the undersides of the leaves was then determined visually.
# The visually determined percentages of infected leaf areas were converted into efficacies in % of the untreated control:
# The efficacy (E) is calculated as follows using Abbot's formula: […]
# α corresponds to the fungicidal infection of the treated plants in % and β corresponds to the fungicidal infection of the untreated (control) plants in %
# An efficacy of 0 means that the infection level of the treated plants corresponds to that of the untreated control plants; an efficacy of 100 means that the treated plants were not infected.
# The expected efficacies of mixtures of active compounds were determined using Colby's formula (Colby, S. R. “Calculating synergistic and antagonistic responses of herbicide combinations”, Weeds, 15, 20-22, 1967) and compared with the observed efficacies.
# E expected efficacy, expressed in % of the untreated control, when using the mixture of the active compounds A and B at the concentrations a and b x efficacy, expressed in % of the untreated control, when using the active compound A at the concentration a y efficacy, expressed in % of the untreated control, when using the active compound B at the concentration b
SMILES,Efficacy in % of the untreated control (16 ppm in the spray liquor) [%],Efficacy in % of the untreated control (63 ppm in the spray liquor) [%]
"CC1CCN(c2c(-c3c(F)cc(F)cc3F)c(Cl)nc3ncnn23)CC1 [compound I, 5-chloro-7-(4-methylpiperidin-1-yl)-6-(2,4,6-trifluorophenyl)[1,2,4]triazolo[1,5-a]pyrimidine]",55,66
"Cc1ccc(N(SC(F)(Cl)Cl)S(=O)(=O)N(C)C)cc1 [compound II, N-dichlorofluoromethylthio-N′,N′-dimethyl-N-p-tolylsulfamide]",0,21
